One assay concerns MV-4-11 cells. In words: Anti-proliferative activity against MV-4-11 cells (three-day cell viability chemiluminescence). Format: cell-based. The following applies: Homo sapiens, MV4-11, 72 h, MV-4-11 human monocytic leukemia cells, three days of exposure. The procedure: This study utilized a cell proliferation assay to analyze the cytotoxicity of MV-4-11 human monocytic leukemia cells after three days of exposure to NMT1 inhibitors. The MV-4-11 cell line was purchased from Nanjing Cobuilder Biotechnology Co., Ltd., and cultured in IMDM medium (Viva cell) in an incubator (Thermo) at 37 °C with 5% CO2. In this experiment, NMT1 inhibitors were dissolved in DMSO to obtain 600 µM stock solutions. Dose-response solutions were prepared with a top endpoint compound concentration of 3 µM, followed by three-fold serial dilutions in DMSO, totaling eight data points. The final concentration of DMSO was 0.5%.
MV-4-11 cells were seeded into a white 96-well plate, 80 µL of cell suspension per well, containing 6000 MV-4-11 cells. The cell plate was placed in the CO2 incubator for overnight culture. Then, 20 µL of NMT1 inhibitor solutions at different concentrations were added to the wells. The 96-well plate was placed back into the incubator for three days. Another cell plate was prepared, and the signal was read on the day of drug addition to serve as the maximum value (Max value in the equation below) for data analysis. To this cell plate, 25 µL of cell viability chemiluminescence detection reagent was added per well, followed by incubation at room temperature for 10 minutes to stabilize the luminescence signal. A multi-label analyzer was used for reading.
The raw data were converted into inhibition rates using the equation (Sample - Min) / (Max - Min) * 100%. The IC50 values were then determined by fitting a four-parameter curve (using the "log(inhibitor) vs. response - Variable slope" model in GraphPad Prism). Min: wells treated with 0.5% DMSO; Max: Day 0 wells. Table 1 provides the inhibitory activity of the compounds of the invention on MV-4-11 cell proliferation. Table 1: Compound Inhibitory Activity against NMT1 Enzyme (IC50) and Anti-proliferative Activity against MV-4-11 Cells (IC50)

For another assay, the target named is T1, NMT1 enzyme (Homo sapiens, UniProt P30419).
T1 sequence (P30419 1-496): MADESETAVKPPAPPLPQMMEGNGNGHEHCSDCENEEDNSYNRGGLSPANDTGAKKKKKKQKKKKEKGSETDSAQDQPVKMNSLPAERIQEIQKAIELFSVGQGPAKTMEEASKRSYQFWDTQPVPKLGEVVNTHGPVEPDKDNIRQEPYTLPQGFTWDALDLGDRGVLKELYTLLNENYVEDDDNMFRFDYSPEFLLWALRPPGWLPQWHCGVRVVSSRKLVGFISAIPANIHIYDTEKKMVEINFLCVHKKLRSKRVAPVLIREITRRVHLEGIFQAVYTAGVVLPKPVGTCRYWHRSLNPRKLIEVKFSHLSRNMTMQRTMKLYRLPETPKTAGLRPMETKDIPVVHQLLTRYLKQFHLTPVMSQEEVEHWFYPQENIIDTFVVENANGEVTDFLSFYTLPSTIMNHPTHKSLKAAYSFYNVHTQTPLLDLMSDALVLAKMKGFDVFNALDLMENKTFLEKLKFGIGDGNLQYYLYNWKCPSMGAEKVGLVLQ
In words: Inhibitory activity on NMT1 enzyme catalysis (fluorescence intensity, CPM probe). Format: biochemical. The following applies: 6 nM NMT1 enzyme, 1.25 µM myristoyl-CoA, 20 µM HSPP60 SRC peptide, 45 minutes at 25 °C. How it is done:
This study evaluated the ability of the compounds of the invention to inhibit NMT1 catalytic activity in vitro. The experiment used a FI (Fluorescence Intensity) analysis method, characterizing NMT1 inhibitors under conditions of 1.25 µM myristoyl-CoA (Lithium salt, Sigma, M4414). In this experiment, a synthesized peptide with the sequence H-Gly-Ser-Asn-Lys-Ser-Lys-Pro-Lys-NH2, HSPP60SRC (Nanjing Peptide Industry, NJP23953), was used as the reaction substrate. The final concentration of the NMT1 enzyme was 6 nM, the final concentration of CPM (Reactive thiol fluorescence probe, Invitrogen, D346) was 1 µM, the final concentration of HSPP60 SRC was 20 µM, and the final concentration of DMSO was 0.5%.
Compounds were dissolved in DMSO to obtain 10 mM stock solutions. Dose-response solutions were prepared with a top endpoint compound concentration of 3 mM, followed by three-fold serial dilutions in DMSO, totaling ten data points. Using an ECHO acoustic liquid handler (BECKMAN, ECHO 655 system), 0.05 µL of the diluted compound solutions was transferred to a 384-well assay plate (Corning, CLS4514). Then, 2.5 µL of the NMT1 enzyme working solution was added to the 384-well assay plate, followed by incubation at 25 °C for 10 minutes. Subsequently, 5 µL of the CPM and myristoyl-CoA working solution was added, the plate was centrifuged at 1000 rpm for 1 minute, and then 2.5 µL of the HSPP60 SRC working solution was added to initiate the reaction. The reaction was incubated at 25 °C for 45 minutes. The FI signal ([…]; ex: 405 nm) was detected using an HTS high-throughput screening multifunctional microplate reader (BMG, PHERA star FSX).
The inhibition rate of the compounds on NMT1 enzyme catalytic activity was calculated using the following formula: Inhibition Percentage (%) = 100 * (Mean of DMSO group - Mean of Compound group) / (Mean of DMSO group - Mean of Blank control group). The IC50 curve of the compounds was fitted using the software XLfit 5.5.0 according to the nonlinear regression equation. Table 1 provides the inhibitory activity of the compounds of the invention on NMT1 enzyme catalysis.

The text below walks through data of patent EP4741391A1, “NMT INHIBITOR, AND PREPARATION METHOD THEREFOR AND USE THEREOF” (Nanjing Synnocare Pharmaceutical Technology Co., Ltd., priority 2023, dated 2025).

For `CNCc1cnn2ccc(-c3ccc(F)cc3OCCc3c(C(C)(C)O)nn(C)c3C)cc12` [Compound 33, 2-(4-{2-[(5-fluoro-2-{3-[(methylamino)methyl]pyrazolo[1,5-a]pyridin-5-yl}phenyl)oxy]ethyl}-1,5-dimethylpyrazol-3-yl)propan-2-ol], the figures for the half-inhibitory concentration (IC50) in the assay on MV-4-11 cells and against NMT1 enzyme were 5.49 nM and 2.13 nM, respectively.
As to `CNCc1cnn2ccc(-c3ccc(F)cc3OCCc3c(C(C)O)nn(C)c3C)cc12` (stereo not shown) [Compound 35, 1-(4-{2-[(5-fluoro-2-{3-[(methylamino)methyl]pyrazolo[1,5-a]pyridin-5-yl}phenyl)oxy]ethyl}-1,5-dimethylpyrazol-3-yl)ethan-1-ol], the IC50 in the assay on MV-4-11 cells was found to be 5.04 nM; against NMT1 enzyme, 2.05 nM.

The IC50 is the concentration at which inhibition is half-maximal. Low values mean inhibition by little substance, high ones a need for much substance.
